# Assay results reported in US10829458B2 (Araxes Pharma LLC, priority 2015, dated 2020).
# Molecular target: T1, KRAS G12C 1-169, his-tagged protein, GDP-loaded (Homo sapiens, UniProt P01116, G12C)
# T1 construct: KRAS G12C 1-169, his-tagged protein, GDP-loaded
# Test: Biochemical assay: covalent modification of KRAS G12C measured by mass spectrometry (RapidFire/TOF or Q-Exactive)
# Conditions: covalent binding to KRAS G12C; compounds of structure (I)
# How it was run: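 Covalent adduct formation read by intact-mass spectrometry (TOF or Q Exactive Plus, charge envelopes deconvoluted into modified and unmodified species) after formic acid quench. Reactions contained 2 μM GDP-bound KRAS G12C 1-169 (his-tag) in Hepes/NaCl/MgCl2 buffer plus 10, 30 or 100 μM final compound, held 30 min, 2 h or 24 h at room temperature.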
row,Structure (SMILES),Binding %
1,"C=C(F)C(=O)N1CCN(c2nc(OCCN3CCOCC3)nc3c(F)c(-c4c(O)cccc4F)c(Cl)cc23)CC1 [Example I-60, 1-(4-(6-chloro-8-fluoro-7-(2-fluoro-6-hydroxyphenyl)-2-(2-morpholino-ethoxy)quinazolin-4-yl)piperazin-1-yl)-2-fluoroprop-2-en-1-one]",++ (++ indicates binding activity from 50 to 90%)
2,"C=CC(=O)N1CCN(c2nc(NCCF)nc3c(F)c(-c4cc(O)cc5ccccc45)c(Cl)cc23)CC1 [Example I-61, 1-(4-(6-chloro-8-fluoro-2-(2-fluoroethyl-amino)-7-(3-hydroxy-naphthalen-1-yl)quinazolin-4-yl)piperazin-1-yl)prop-2-en-1-one]",+++ (+++ indicates binding activity greater than 90%)
3,"C=CC(=O)N1CCN(c2nc(OCCCN3CCC(F)(F)C3)nc3c(F)c(-c4c(O)cccc4F)c(Cl)cc23)CC1 [Example I-62, 1-(4-(6-chloro-2-(3-(3,3-difluoro-pyrrolidin-1-yl)propoxy)-8-fluoro-7-(2-fluoro-6-hydroxyphenyl)quinazolin-4-yl)piperazin-1-yl) prop-2-en-1-one]",+++ (+++ indicates binding activity greater than 90%)
4,"C=CC(=O)N1CCN(c2nc(OC3CCC(O)CC3)nc3c(F)c(-c4c(O)cccc4F)c(Cl)cc23)CC1 (stereo not drawn) [Example I-63, 1-(4-(6-chloro-8-fluoro-7-(2-fluoro-6-hydroxyphenyl)-2-(4-hydroxy-cyclohexyloxy)quinazolin-4-yl)piperazin-1-yl)prop-2-en-1-one]",+++ (+++ indicates binding activity greater than 90%)
5,"C=CC(=O)N1CCN(c2nc(Oc3cn[nH]c3)nc3c(F)c(-c4c(O)cccc4F)c(Cl)cc23)CC1 [Example I-64, 1-(4-(2-(1H-pyrazol-4-yloxy)-6-chloro-8-fluoro-7-(2-fluoro-6-hydroxyphenyl)quinazolin-4-yl)piperazin-1-yl) prop-2-en-1-one]",+++ (+++ indicates binding activity greater than 90%)
6,"CN(C)C/C=C/C(=O)N1CCN(c2nc(OCCN3CCOCC3)nc3c(F)c(-c4cc(O)cc5ccccc45)c(Cl)cc23)CC1 [Example I-65, (E)-1-(4-(6-chloro-8-fluoro-7-(3-hydroxy-naphthalen-1-yl)-2-(2-morpholino-ethoxy)quinazolin-4-yl)piperazin-1-yl)-4-(dimethyl-amino)but-2-en-1-one]",+++ (+++ indicates binding activity greater than 90%)
7,"C=CC(=O)N1CCN(c2nc(NC3CCS(=O)(=O)CC3)nc3c(F)c(-c4c(O)cccc4F)c(Cl)cc23)CC1 [Example I-66, 1-(4-(6-chloro-8-fluoro-7-(2-fluoro-6-hydroxyphenyl)-2-(tetrahydro-2H-dioxothio-pyran-4-ylamino)quinazolin-4-yl)piperazin-1-yl) prop-2-en-1-one]",+++ (+++ indicates binding activity greater than 90%)
8,"C=CC(=O)N1CCN(c2nc(OCCN3CCS(=O)(=O)CC3)nc3c(F)c(-c4c(O)cccc4F)c(Cl)cc23)CC1 [Example I-67, 1-(4-(6-chloro-8-fluoro-7-(2-fluoro-6-hydroxyphenyl)-2-(2-dioxothio-morpholino-ethoxy)quinazolin-4-yl)piperazin-1-yl)prop-2-en-1-one]",+++ (+++ indicates binding activity greater than 90%)
9,"C=CC(=O)N1CCN(c2nc(C#N)nc3c(F)c(-c4c(O)cccc4F)c(Cl)cc23)CC1 [Example I-68, 4-(4-acryloyl-piperazin-1-yl)-6-chloro-8-fluoro-7-(2-fluoro-6-hydroxyphenyl) quinazoline-2-carbonitrile]",+++ (+++ indicates binding activity greater than 90%)
10,"C=CC(=O)N1CCN(c2nc(NC3CCOCC3)nc3c(F)c(-c4cc(O)cc5ccccc45)c(Cl)cc23)CC1 [Example I-69, 1-(4-(6-chloro-8-fluoro-7-(3-hydroxy-naphthalen-1-yl)-2-(tetrahydro-2H-pyran-4-ylamino)quinazolin-4-yl)piperazin-1-yl)prop-2-en-1-one]",+++ (+++ indicates binding activity greater than 90%)
11,"C=CC(=O)N1CCN(c2nc(NC3CCN(C(C)=O)CC3)nc3c(F)c(-c4c(O)cccc4F)c(Cl)cc23)CC1 [Example I-70, 1-(4-(2-(1-acetyl-piperidin-4-ylamino)-6-chloro-8-fluoro-7-(2-fluoro-6-hydroxyphenyl)quinazolin-4-yl)piperazin-1-yl) prop-2-en-1-one]",+++ (+++ indicates binding activity greater than 90%)
12,"C=CC(=O)N1CCN(c2nc(NC3CCOC3)nc3c(F)c(-c4cc(O)cc5ccccc45)c(Cl)cc23)CC1 (stereo not drawn) [Example I-71, 1-(4-(6-chloro-8-fluoro-7-(3-hydroxy-naphthalen-1-yl)-2-(tetrahydro-furan-3-ylamino)quinazolin-4-yl)piperazin-1-yl)prop-2-en-1-one]",+++ (+++ indicates binding activity greater than 90%)
13,"C=CC(=O)N1CCN(c2nc(NC3CCN(C4CC4)CC3)nc3c(F)c(-c4c(O)cccc4F)c(Cl)cc23)CC1 [Example I-72, 1-(4-(6-chloro-2-(1-cyclopropyl-piperidin-4-ylamino)-8-fluoro-7-(2-fluoro-6-hydroxyphenyl)quinazolin-4-yl)piperazin-1-yl) prop-2-en-1-one]",+++ (+++ indicates binding activity greater than 90%)
14,"C=C(Cl)C(=O)N1CCN(c2nc(OCCN3CCOCC3)nc3c(F)c(-c4cc(O)cc5ccccc45)c(Cl)cc23)CC1 [Example I-73, 2-chloro-1-(4-(6-chloro-8-fluoro-7-(3-hydroxy-naphthalen-1-yl)-2-(2-morpholino-ethoxy)quinazolin-4-yl)piperazin-1-yl)prop-2-en-1-one]",+++ (+++ indicates binding activity greater than 90%)
15,"CN(C)C/C=C/C(=O)N1CCN(c2nc(OCCN3CCOCC3)nc3c(F)c(-c4c(O)cccc4F)c(Cl)cc23)CC1 [Example I-74, (E)-1-(4-(6-chloro-8-fluoro-7-(2-fluoro-6-hydroxyphenyl)-2-(2-morpholino-ethoxy)quinazolin-4-yl)piperazin-1-yl)-4-(dimethyl-amino)but-2-en-1-one]",+++ (+++ indicates binding activity greater than 90%)
16,"C=CC(=O)N1CCN(c2nc(NC3CCN(C4CC4)CC3)nc3c(F)c(-c4cc(O)cc5ccccc45)c(Cl)cc23)CC1 [Example I-75, 1-(4-(6-chloro-2-(1-cyclo-propylpiperidin-4-ylamino)-8-fluoro-7-(3-hydroxy-naphthalen-1-yl)quinazolin-4-yl)piperazin-1-yl)prop-2-en-1-one]",+++ (+++ indicates binding activity greater than 90%)
17,"C=CC(=O)N1CCN(c2nc(OCCN3CCC(F)CC3)nc3c(F)c(-c4c(O)cccc4F)c(Cl)cc23)CC1 [Example I-76, 1-(4-(6-chloro-8-fluoro-7-(2-fluoro-6-hydroxyphenyl)-2-(2-(4-fluoro-piperidin-1-yl)ethoxy)quinazolin-4-yl)piperazin-1-yl)prop-2-en-1-one]",+++ (+++ indicates binding activity greater than 90%)
18,"C=CC(=O)N1CCN(c2nc(NC3CCN(C(C)C)CC3)nc3c(F)c(-c4cc(O)cc5ccccc45)c(Cl)cc23)CC1 [Example I-77, 1-(4-(6-chloro-8-fluoro-7-(3-hydroxy-naphthalen-1-yl)-2-(1-isopropyl-piperidin-4-ylamino)quinazolin-4-yl)piperazin-1-yl)prop-2-en-1-one]",+++ (+++ indicates binding activity greater than 90%)
19,"C=CC(=O)N1CCN(c2nc(NC3CCN(C4CC4)CC3)nc3c(F)c(-c4c(C)cccc4O)c(Cl)cc23)CC1 [Example I-80, 1-(4-(6-chloro-2-(1-cyclopropyl-piperidin-4-ylamino)-8-fluoro-7-(2-hydroxy-6-methylphenyl)quinazolin-4-yl)piperazin-1-yl) prop-2-en-1-one]",+++ (+++ indicates binding activity greater than 90%)
20,"C=CC(=O)N1CCN(c2nc(OCCO)nc3c(F)c(-c4cc(O)cc5ccccc45)c(Cl)cc23)CC1 [Example I-83, 1-(4-(6-chloro-8-fluoro-2-(2-hydroxyethoxy)-7-(3-hydroxy-naphthalen-1-yl)quinazolin-4-yl)piperazin-1-yl)prop-2-en-1-one]",+++ (+++ indicates binding activity greater than 90%)
21,"C=CC(=O)N1CCN(c2nc(NC3CCN(C(C)C)CC3)nc3c(F)c(-c4c(O)cccc4F)c(Cl)cc23)CC1 [Example I-84, 1-(4-(6-chloro-8-fluoro-7-(2-fluoro-6-hydroxyphenyl)-2-(1-isopropyl-piperidin-4-ylamino)quinazolin-4-yl)piperazin-1-yl)prop-2-en-1-one]",+++ (+++ indicates binding activity greater than 90%)
22,"C=CC(=O)N1CCN(c2nc(C(N)=O)nc3c(F)c(-c4c(O)cccc4F)c(Cl)cc23)CC1 [Example I-85, 4-(4-acryloyl-piperazin-1-yl)-6-chloro-8-fluoro-7-(2-fluoro-6-hydroxyphenyl) quinazoline-2-carboxamide]",+++ (+++ indicates binding activity greater than 90%)
23,"C=CC(=O)N1CCN(c2nc(OCCNC)nc3c(F)c(-c4c(O)cccc4F)c(Cl)cc23)CC1 [Example I-86, 1-(4-(6-chloro-8-fluoro-7-(2-fluoro-6-hydroxyphenyl)-2-(2-(methyl-amino)ethoxy)quinazolin-4-yl)piperazin-1-yl)prop-2-en-1-one]",+++ (+++ indicates binding activity greater than 90%)
24,"C=CC(=O)N1CCN(c2nc(OCCc3cccc(C)n3)nc3c(F)c(-c4c(O)cccc4F)c(Cl)cc23)CC1 [Example I-89, 1-(4-(6-chloro-8-fluoro-7-(2-fluoro-6-hydroxyphenyl)-2-(2-(6-methyl-pyridin-2-yl)ethoxy)quinazolin-4-yl)piperazin-1-yl)prop-2-en-1-one]",+++ (+++ indicates binding activity greater than 90%)
